Measured values taken from US8048879B2, “Substituted 4,5,6,7-tetrahydro-isoxazolo[4,5-c]pyridine compounds and use thereof for producing medicaments” (Gruenenthal GmbH, priority 2005, dated 2011).

Target: T1, 5-HT transporter (Rattus norvegicus, UniProt P31652)
T1 construct: from tissue; host or cells: rat brain (medulla and pons), synaptosomes, P2 fraction
Assay: 5-HT uptake inhibition, synaptosomes from rat brain (medulla and pons)
Type: biochemical
From the text: b) Method for Determining Noradrenalin and 5-HT Uptake Inhibition:
Synaptosomes from rat brain regions are freshly isolated for in vitro studies, as described in the publication “The isolation of nerve endings from brain” by E. G. Gray and V. P. Whittaker, J. Anatomy 96, pages 79-88, 1962. The corresponding literature description is hereby introduced as a reference and is deemed to be part of the disclosure.
The tissue (hypothalamus for the determination of noradrenalin uptake inhibition and medulla and pons for the determination of 5-HT uptake inhibition) is homogenised in ice-cooled 0.32 M sucrose (100 mg of tissue/1 mL) in a glass homogeniser with Teflon pestle using five complete up and down strokes at 840 revolutions/minute.
The homogenate is centrifuged at 4° C. for 10 minutes at 1000 g. After subsequent centrifugation at 17000 g for 55 minutes, the synaptosomes (P2 fraction) are obtained, which are resuspended in 0.32 M […] (0.5 mL/100 mg of original weight).
The particular uptake is measured in a 96-well microtitre plate. The volume is 250 μL and the incubation proceeds at room temperature (approx. 20-25° C.) under an O2 atmosphere.
The incubation time is 7.5 minutes for [^3H]-NA and 5 minutes for [^3H]-5-HT. The 96 samples are then filtered through a Unifilter GF/B® microtitre plate (Packard) and washed with 200 mL of incubated buffer using a “Brabdel MPXRI-96T Cell-Harvester”. The Unifilter GF/B plate is dried for 1 hour at 55° C. The plate is then sealed with a Back Seal® (Packard) and 35 μL of scintillation fluid are added per well (Ultima Gold®, Packard). After sealing with a top Seal® (Packard) and establishing an equilibrium (around 5 hours), radioactivity is determined in a “Trilux 1450 Microbeta” (Wallac).
The quantity of protein used in the above determination corresponds to the values known from the literature, as for example described in “Protein measurement with the folin phenol reagent”, Lowry et al., J. Biol. Chem., 193, 265-275, 1951.
A detailed description of the method may additionally be found in the literature, for example in M. Ch. Frink, H.-H. Hennies, W. Engelberger, M. Haurand and B. Wilffert (1996) Arzneim.-Forsch./Drug Res. 46 (III), 11, 1029-1036.
The following characteristics were determined for the NA or 5-HT transporter: […]

T1 sequence (P31652 whole entry): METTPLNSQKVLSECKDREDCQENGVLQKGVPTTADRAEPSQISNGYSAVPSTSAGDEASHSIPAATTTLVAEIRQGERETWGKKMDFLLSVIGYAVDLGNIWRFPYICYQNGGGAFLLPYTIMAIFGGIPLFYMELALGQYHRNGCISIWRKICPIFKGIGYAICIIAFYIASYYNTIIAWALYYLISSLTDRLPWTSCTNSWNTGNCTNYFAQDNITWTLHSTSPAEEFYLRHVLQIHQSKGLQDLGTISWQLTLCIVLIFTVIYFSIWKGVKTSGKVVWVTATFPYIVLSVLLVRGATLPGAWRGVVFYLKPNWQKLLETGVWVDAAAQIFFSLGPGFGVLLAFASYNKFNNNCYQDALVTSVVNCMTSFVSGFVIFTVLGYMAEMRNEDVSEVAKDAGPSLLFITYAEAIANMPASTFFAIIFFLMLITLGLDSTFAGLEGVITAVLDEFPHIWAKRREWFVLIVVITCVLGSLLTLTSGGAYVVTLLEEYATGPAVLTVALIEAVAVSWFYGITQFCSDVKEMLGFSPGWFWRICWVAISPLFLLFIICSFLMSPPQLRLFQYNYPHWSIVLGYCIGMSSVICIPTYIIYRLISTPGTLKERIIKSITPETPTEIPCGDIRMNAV

SMILES	inhibition at 10 µM [%]	5-HT uptake (rat), 10 μM, % inhibition (10 µM) [%]
COc1ccc(C(C)NC(=O)c2noc3c2CN(S(=O)(=O)c2ccc(OC)cc2)CC3)cc1 (stereo not drawn) [Example 84, 5-(4-methoxy-benzenesulfonyl)-4,5,6,7-tetrahydro-isoxazolo[4,5-c]pyridine-3-carboxylic acid [1-(4-methoxyphenyl)-ethyl] amide]	69	
CCOC(=O)C(C)NC(=O)c1noc2c1CN(S(=O)(=O)c1cccs1)CC2 (stereo not drawn) [Example 85, 2-{[5-(thiophene-2-sulfonyl)-4,5,6,7-tetrahydro-isoxazolo[4,5-c]pyridine-3-carbonyl]-amino}-propionic acid ethyl ester]	67	
C=CCOc1ccc(CN(Cc2ccco2)C(=O)c2noc3c2CN(S(=O)(=O)c2cccc(C(F)(F)F)c2)CC3)cc1 [Example 87, 5-(3-trifluoromethyl-benzenesulfonyl)-4,5,6,7-tetrahydro-isoxazolo[4,5-c]pyridine-3-carboxylic acid (4-allyloxy-benzyl)-furan-2-ylmethyl amide]	66	
COc1ccc(S(=O)(=O)N2CCc3onc(C(=O)NC(CCC(=O)OC(C)(C)C)C(N)=O)c3C2)cc1 (stereo not drawn) [Example 88, 4-carbamoyl-4-{[5-(4-methoxy-benzenesulfonyl)-4,5,6,7-tetrahydro-isoxazolo[4,5-c]pyridine-3-carbonyl]-amino}-butanoic acid tert-butyl ester]	62	
CSc1ccc(CN(Cc2ccco2)C(=O)c2noc3c2CN(S(=O)(=O)N(C)C)CC3)cc1 [Example 89, 5-dimethylsulfamoyl-4,5,6,7-tetrahydro-isoxazolo[4,5-c]pyridine-3-carboxylic acid furan-2-ylmethyl-(4-methylsulfanyl-benzyl) amide]	64	
Cc1cc(C(=O)N2CCc3onc(C(=O)NCCN4CCOCC4)c3C2)ccc1Br [Example 90, 5-(4-bromo-3-methyl-benzoyl)-4,5,6,7-tetrahydro-isoxazolo[4,5-c]pyridine-3-carboxylic acid (2-morpholin-4-yl-ethyl) amide]	65	
Cc1ccc(S(=O)(=O)N2CCc3onc(C(=O)NC4CCN(Cc5c(Cl)cccc5Cl)C4)c3C2)cc1 (stereo not drawn) [Example 91, 5-(toluene-4-sulfonyl)-4,5,6,7-tetrahydro-isoxazolo[4,5-c]pyridine-3-carboxylic acid [1-(2,6-dichloro-benzyl)-pyrrolidin-3-yl] amide]	67	
O=C(NCCc1ccc(Cl)c(Cl)c1)c1noc2c1CN(S(=O)(=O)c1ccccc1)CC2 [Example 92, 5-benzenesulfonyl-4,5,6,7-tetrahydro-isoxazolo[4,5-c]pyridine-3-carboxylic acid [2-(3,4-dichloro-phenyl)-ethyl] amide]	61	
CN(C)CCNC(=O)c1noc2c1CN(C(=O)c1cccc(SC(F)F)c1)CC2 [Example 93, 5-(3-difluoromethylsulfanyl-benzoyl)-4,5,6,7-tetrahydro-isoxazolo[4,5-c]pyridine-3-carboxylic acid (2-dimethylamino-ethyl) amide]	88	
O=C(NCCN1CCCC1)c1noc2c1CN(C(=O)COc1cccc(Cl)c1)CC2 [Example 94, 5-[2-(3-chlorophenoxy)-acetyl]-4,5,6,7-tetrahydro-isoxazolo[4,5-c]pyridine-3-carboxylic acid (2-pyrrolidin-1-yl-ethyl) amide]		94
COc1ccc(S(=O)(=O)N2CCc3onc(C(=O)NCc4cccc(OC)c4OC)c3C2)cc1 [Example 95, 5-(4-methoxy-benzenesulfonyl)-4,5,6,7-tetrahydro-isoxazolo[4,5-c]pyridine-3-carboxylic acid 2,3-dimethoxy-benzyl amide]	68	
Cc1cc(C(=O)N2CCc3onc(C(=O)NCCN4CCCC4)c3C2)ccc1Br [Example 102, 5-(4-bromo-3-methyl-benzoyl)-4,5,6,7-tetrahydro-isoxazolo[4,5-c]pyridine-3-carboxylic acid (2-pyrrolidin-1-yl-ethyl) amide]	70	
O=C(NCc1ccc(C(F)(F)F)c(F)c1)c1noc2c1CN(S(=O)(=O)c1ccccc1)CC2 [Example 113, 5-benzenesulfonyl-4,5,6,7-tetrahydro-isoxazolo[4,5-c]pyridine-3-carboxylic acid 3-fluoro-4-trifluoromethyl-benzyl amide]	83	
CCCCOc1ccc(S(=O)(=O)N2CCc3onc(C(=O)NCC(C)C)c3C2)cc1 [Example 114, 5-(4-butoxy-benzenesulfonyl)-4,5,6,7-tetrahydro-isoxazolo[4,5-c]pyridine-3-carboxylic acid isobutyl amide]	85	
CC(C)CNC(=O)c1noc2c1CN(C(=O)C(NC(=O)OCc1ccccc1)c1ccccc1)CC2 (stereo not drawn) [Example 126, [2-(3-isobutylcarbamoyl-6,7-dihydro-4H-isoxazolo[4,5-c]pyridin-5-yl)-2-oxo-1-phenyl-ethyl]-carbamic acid benzyl ester]	80	
O=C(NC(=S)N1CCc2onc(C(=O)NCCN3CCCC3)c2C1)c1ccccc1 [Example 128, 5-benzoylaminocarbothioyl-4,5,6,7-tetrahydro-isoxazolo[4,5-c]pyridine-3-carboxylic acid (2-pyrrolidin-1-yl-ethyl) amide]	80	

Further lines, with some results ahead:

inhibition at 10 µM [%]	SMILES	5-HT uptake (rat), 10 μM, % inhibition (10 µM) [%]
75	CCOC(=O)CCNC(=O)c1noc2c1CN(C(=O)c1ccc(OC)cc1)CC2 [Example 98, 3-{[5-(4-methoxy-benzoyl)-4,5,6,7-tetrahydro-isoxazolo[4,5-c]pyridine-3-carbonyl]-amino}-propionic acid ethyl ester]	
69	CN(C)CCNC(=O)c1noc2c1CN(C(=O)CCCOc1ccccc1)CC2 [Example 99, 5-(4-phenoxy-butyryl)-4,5,6,7-tetrahydro-isoxazolo[4,5-c]pyridine-3-carboxylic acid (2-dimethylamino-ethyl) amide]	
83	Cc1cccc2c(CCNC(=O)c3noc4c3CN(S(=O)(=O)c3ccc(OC(F)(F)F)cc3)CC4)c[nH]c12 [Example 100, 5-(4-trifluoromethoxy-benzenesulfonyl)-4,5,6,7-tetrahydro-isoxazolo[4,5-c]pyridine-3-carboxylic acid [2-(7-methyl-1H-indol-3-yl)-ethyl] amide]	
76	COc1ccc(OCCNC(=O)c2noc3c2CN(S(=O)(=O)c2ccccc2)CC3)cc1 [Example 106, 5-benzenesulfonyl-4,5,6,7-tetrahydro-isoxazolo[4,5-c]pyridine-3-carboxylic acid [2-(4-methoxy-phenoxy)-ethyl] amide]	
61	CN(C)S(=O)(=O)N1CCc2onc(C(=O)NCc3ccc(C(F)(F)F)c(F)c3)c2C1 [Example 107, 5-dimethylsulfamoyl-4,5,6,7-tetrahydro-isoxazolo[4,5-c]pyridine-3-carboxylic acid 3-fluoro-4-trifluoromethyl-benzyl amide]	
88	C#CCNC(=O)c1noc2c1CN(C(=O)c1cccc(C)c1)CC2 [Example 108, 5-(3-methyl-benzoyl)-4,5,6,7-tetrahydro-isoxazolo[4,5-c]pyridine-3-carboxylic acid prop-2-ynyl amide]	
71	O=C(NCc1ccc(F)cc1F)c1noc2c1CN(S(=O)(=O)c1cc(Cl)ccc1Cl)CC2 [Example 112, 5-(2,5-dichloro-benzenesulfonyl)-4,5,6,7-tetrahydro-isoxazolo[4,5-c]pyridine-3-carboxylic acid 2,4-difluoro-benzyl amide]	
65	Cc1ccc(C(=O)N2CCc3onc(C(=O)NCCN4CCCC4)c3C2)cc1F [Example 115, 5-(3-fluoro-4-methyl-benzoyl)-4,5,6,7-tetrahydro-isoxazolo[4,5-c]pyridine-3-carboxylic acid (2-pyrrolidin-1-yl-ethyl) amide]	
77	CC(C)CNC(=O)c1noc2c1CN(C(=O)c1cc(C(F)(F)F)ccc1Cl)CC2 [Example 116, 5-(2-chloro-5-trifluoromethyl-benzoyl)-4,5,6,7-tetrahydro-isoxazolo[4,5-c]pyridine-3-carboxylic acid isobutyl amide]	
73	CN(C)CCNC(=O)c1noc2c1CN(C(=O)c1cccc(OC(F)(F)F)c1)CC2 [Example 119, 5-(3-trifluoromethoxy-benzoyl)-4,5,6,7-tetrahydro-isoxazolo[4,5-c]pyridine-3-carboxylic acid (2-dimethylamino-ethyl) amide]	
65	O=C(NCc1ccc(F)cc1)c1noc2c1CN(C(=O)c1ccc3ncccc3c1)CC2 [Example 124, 5-(quinoline-6-carbonyl)-4,5,6,7-tetrahydro-isoxazolo[4,5-c]pyridine-3-carboxylic acid 4-fluorobenzyl amide]	
